Measurements: US8263079B2, “Antibodies against CSF-1R” (ImClone, LLC, priority 2010, dated 2012)
Each block holds one molecule with its values, some of them ahead of it.

How the values were obtained:
DU145 prostate cells = assay: Prostate tumor combination study, DU145 xenograft; format: in vivo, mouse; conditions: 12 mg/kg IP Q7Dx3, vs saline control, P 0.15
Source text: Inject Nu/nu mice (male, 7-8 weeks of age) subcutaneously with 1.5×10^7 DU145 prostate cells/mouse and allow tumors to reach 300 mm^3 before treatment. Randomize mice into groups of 10 and treat as follows:
Measure tumor volumes and calculate the T/C % for each treatment as the ratio of the relative tumor volumes versus the control group. Analyze tumor volumes using RM ANOVA.

HCC-1954 breast cells = assay: Breast tumor combination studies, HCC-1954 xenograft; format: in vivo, mouse
Source text: Inject Nu/nu mice (female, 7-8 weeks of age) subcutaneously with 1×10^7 HCC-1954 breast cells/mouse and allow tumors to reach 300 mm^3 before treatment. Randomize mice into groups of 12 and treat as follows:
Measure tumor volumes and calculate the T/C % for each treatment group as the ratio of the relative tumor volumes versus the control group. Analyze tumor volumes using RM ANOVA.

CSF-1R = molecular target: T1, CSF-1R (Homo sapiens, UniProt P07333); assay: Degradation of CSF-1R in NIH-3T3-CSF-1R cells (Western blot, normalized to actin); format: cell-based
T1 construct: expressed in transfected cells
Protocol: Seed NIH-3T3-CSF-1R cells at 5×10^5 cells/well in a 12 well plate in 1 mL DMEM media containing 10% FBS and 1 mg/mL geniticin. […] CSF-1 is known to induce internalization and degradation of CSF-1R, thereby acting as a positive control for the experiment. Allow CSF-1 to remain on cells for 1 and 5 hours before collecting cells. […] Aspirate medium, lyse cells and run clarified lysates on gels (as described above). Probe transferred proteins with anti-CSF-1R antibodies to determine the amount of receptor for each condition. Probe the same blots with anti-actin antibodies to normalize protein levels. Quantify CSF-1R and actin levels using the Multi-Gauge program to measure band density on the Western blot. The relative total CSF-1R protein level is represented by the total CSF-1R band density divided by the corresponding actin band density.

Molecule: CC(=O)O[C@@]12CO[C@@H]1C[C@H](O)[C@@]1(C)C(=O)[C@H](O)C3=C(C)[C@@H](OC(=O)[C@H](O)[C@@H](NC(=O)OC(C)(C)C)c4ccccc4)C[C@@](O)([C@@H](OC(=O)c4ccccc4)[C@H]21)C3(C)C [Docetaxel]
% T/C (DU145 prostate cells): 59%

Molecule: COc1cccc2c1C(=O)c1c(O)c3c(c(O)c1C2=O)C[C@@](O)(C(=O)CO)C[C@@H]3O[C@H]1C[C@H](N)[C@H](O)[C@H](C)O1 [Doxorubicin]
% T/C (HCC-1954 breast cells; 8 mg/kg IP Q7Dx2, vs saline control, P 0.008): 50%

Molecule: CC(=O)O[C@H]1C(=O)[C@@]2(C)[C@H]([C@H](OC(=O)c3ccccc3)[C@]3(O)C[C@H](OC(=O)[C@H](O)[C@@H](NC(=O)c4ccccc4)c4ccccc4)C(C)=C1C3(C)C)[C@]1(OC(C)=O)CO[C@@H]1C[C@@H]2O [Paclitaxel]
% T/C (HCC-1954 breast cells; 10 mg/kg IP Q7Dx3, vs saline control, P<0.01): 60%

CSF-1R levels (degradation) (CSF-1R; 100 ng/mL CSF-1, by 5 hours, positive control): halved
time to degradation of CSF-1R (CSF-1R; 100 ng/mL CSF-1, positive control): ≤ 1 h
B1: CSF-1: Colony Stimulating Factor-1, CSF-1R ligand, positive control for receptor degradation (protein, listed as Homo sapiens)
chain: MTAPGAAGRCPPTTWLGSLLLLVCLLASRSITEEVSEYCSHMIGSGHLQSLQRLIDSQMETSCQITFEFVDQEQLKDPVCYLKKAFLLVQDIMEDTMRFRDNTPNAIAIVQLQELSLRLKSCFTKDYEEHDKACVRTFYETPLQLLEKVKNVFNETKNLLDKDWNIFSKNCNNSFAECSSQDVVTKPDCNCLYPKAIPSSDPASVSPHQPLAPSMAPVAGLTWEDSEGTEGSSLLPGEQPLHTVDPGSAKQRPPRSTCQSFEPPETPVVKDSTIGGSPQPRPSVGAFNPGMEDILDSAMGTNWVPEEASGEASEIPVPQGTELSPSRPGGGSMQTEPARPSNFLSASSPLPASAKGQQPADVTGTALPRVGPVRPTGQDWNHTPQKTDHPSALLRDPPEPGSPRISSLRPQGLSNPSTLSAQPQLSRSHSSGSVLPLGELEGRRSTRDRRSPAEPEGGPASEGAARPLPRFNSVPLTDTGHERQSEGSFSPQLQESVFHLLVPSVILVLLAVGGLLFYRWRRRSHQEPQRADSPLEQPEGSPLTQDDRQVELPV
